SMILES strings stand for the structures. Values joined by “and” are separate entries in the source; they are usually repeats but may differ in a detail not shown here. Equal values may be shown once. Where only a bound is given, the exact number is not on record here.

Experiment [1] concerns the target Metabotropic glutamate receptor 3 (Homo sapiens, UniProt Q14832).
For experiment [2], the target named is Metabotropic glutamate receptor 2 (Homo sapiens, UniProt Q14416).
Experiment [3] deals with Metabotropic glutamate receptor 1 (Homo sapiens, UniProt Q13255).
Metabotropic glutamate receptor 1, sequence (Q13255 whole entry): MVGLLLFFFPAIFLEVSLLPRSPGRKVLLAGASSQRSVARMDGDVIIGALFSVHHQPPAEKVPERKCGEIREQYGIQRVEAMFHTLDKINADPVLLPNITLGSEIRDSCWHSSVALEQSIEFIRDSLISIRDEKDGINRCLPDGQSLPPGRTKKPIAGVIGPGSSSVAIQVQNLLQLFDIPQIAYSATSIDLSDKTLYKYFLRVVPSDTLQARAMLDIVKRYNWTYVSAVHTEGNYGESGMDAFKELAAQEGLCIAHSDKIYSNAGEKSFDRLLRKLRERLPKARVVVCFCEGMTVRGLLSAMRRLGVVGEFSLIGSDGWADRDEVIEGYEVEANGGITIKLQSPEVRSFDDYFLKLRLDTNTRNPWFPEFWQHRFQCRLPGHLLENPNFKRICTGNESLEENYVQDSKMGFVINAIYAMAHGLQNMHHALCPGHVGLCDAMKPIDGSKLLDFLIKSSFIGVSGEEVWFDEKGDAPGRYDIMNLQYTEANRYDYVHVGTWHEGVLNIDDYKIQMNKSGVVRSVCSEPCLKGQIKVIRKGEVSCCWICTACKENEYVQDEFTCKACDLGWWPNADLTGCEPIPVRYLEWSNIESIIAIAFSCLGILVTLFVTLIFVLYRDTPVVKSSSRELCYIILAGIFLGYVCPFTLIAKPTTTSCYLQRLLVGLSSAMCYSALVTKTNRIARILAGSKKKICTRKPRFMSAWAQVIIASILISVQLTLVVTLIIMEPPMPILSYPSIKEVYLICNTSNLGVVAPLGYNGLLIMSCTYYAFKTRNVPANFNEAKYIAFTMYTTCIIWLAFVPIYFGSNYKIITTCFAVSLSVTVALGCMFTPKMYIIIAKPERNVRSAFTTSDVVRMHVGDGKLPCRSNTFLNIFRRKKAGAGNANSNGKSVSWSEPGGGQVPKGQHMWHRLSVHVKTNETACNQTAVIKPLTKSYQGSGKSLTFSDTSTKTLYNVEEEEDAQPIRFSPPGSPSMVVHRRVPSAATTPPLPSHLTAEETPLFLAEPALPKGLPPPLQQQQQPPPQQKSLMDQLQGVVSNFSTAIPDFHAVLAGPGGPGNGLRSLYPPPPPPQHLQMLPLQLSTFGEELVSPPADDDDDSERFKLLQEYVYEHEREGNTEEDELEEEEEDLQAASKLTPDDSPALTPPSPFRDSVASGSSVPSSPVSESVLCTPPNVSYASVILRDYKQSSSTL

Metabotropic glutamate receptor 3, sequence (Q14832 whole entry): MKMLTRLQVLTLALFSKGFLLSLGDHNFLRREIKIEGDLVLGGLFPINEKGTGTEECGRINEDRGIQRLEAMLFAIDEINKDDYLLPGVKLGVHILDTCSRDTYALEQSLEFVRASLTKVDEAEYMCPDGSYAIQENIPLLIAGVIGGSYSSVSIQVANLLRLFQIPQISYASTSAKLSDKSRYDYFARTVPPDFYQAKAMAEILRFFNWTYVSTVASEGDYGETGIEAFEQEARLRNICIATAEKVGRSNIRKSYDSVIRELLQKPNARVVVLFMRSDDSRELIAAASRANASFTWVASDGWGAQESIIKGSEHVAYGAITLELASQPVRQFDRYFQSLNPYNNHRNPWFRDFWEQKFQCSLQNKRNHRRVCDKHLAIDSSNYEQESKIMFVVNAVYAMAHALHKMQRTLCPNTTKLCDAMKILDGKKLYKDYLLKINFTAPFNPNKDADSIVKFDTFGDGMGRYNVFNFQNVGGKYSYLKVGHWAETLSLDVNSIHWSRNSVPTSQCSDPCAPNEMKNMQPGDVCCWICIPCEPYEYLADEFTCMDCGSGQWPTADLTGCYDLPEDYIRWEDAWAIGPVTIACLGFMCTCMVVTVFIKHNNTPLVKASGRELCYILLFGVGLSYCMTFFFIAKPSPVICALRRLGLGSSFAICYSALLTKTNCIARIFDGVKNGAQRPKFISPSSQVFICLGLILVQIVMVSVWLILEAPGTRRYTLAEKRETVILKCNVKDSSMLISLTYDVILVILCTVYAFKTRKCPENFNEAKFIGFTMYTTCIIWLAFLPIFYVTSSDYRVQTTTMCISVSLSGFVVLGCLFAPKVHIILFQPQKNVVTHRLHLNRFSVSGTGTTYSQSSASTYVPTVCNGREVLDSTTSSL
Metabotropic glutamate receptor 2, sequence (Q14416 whole entry): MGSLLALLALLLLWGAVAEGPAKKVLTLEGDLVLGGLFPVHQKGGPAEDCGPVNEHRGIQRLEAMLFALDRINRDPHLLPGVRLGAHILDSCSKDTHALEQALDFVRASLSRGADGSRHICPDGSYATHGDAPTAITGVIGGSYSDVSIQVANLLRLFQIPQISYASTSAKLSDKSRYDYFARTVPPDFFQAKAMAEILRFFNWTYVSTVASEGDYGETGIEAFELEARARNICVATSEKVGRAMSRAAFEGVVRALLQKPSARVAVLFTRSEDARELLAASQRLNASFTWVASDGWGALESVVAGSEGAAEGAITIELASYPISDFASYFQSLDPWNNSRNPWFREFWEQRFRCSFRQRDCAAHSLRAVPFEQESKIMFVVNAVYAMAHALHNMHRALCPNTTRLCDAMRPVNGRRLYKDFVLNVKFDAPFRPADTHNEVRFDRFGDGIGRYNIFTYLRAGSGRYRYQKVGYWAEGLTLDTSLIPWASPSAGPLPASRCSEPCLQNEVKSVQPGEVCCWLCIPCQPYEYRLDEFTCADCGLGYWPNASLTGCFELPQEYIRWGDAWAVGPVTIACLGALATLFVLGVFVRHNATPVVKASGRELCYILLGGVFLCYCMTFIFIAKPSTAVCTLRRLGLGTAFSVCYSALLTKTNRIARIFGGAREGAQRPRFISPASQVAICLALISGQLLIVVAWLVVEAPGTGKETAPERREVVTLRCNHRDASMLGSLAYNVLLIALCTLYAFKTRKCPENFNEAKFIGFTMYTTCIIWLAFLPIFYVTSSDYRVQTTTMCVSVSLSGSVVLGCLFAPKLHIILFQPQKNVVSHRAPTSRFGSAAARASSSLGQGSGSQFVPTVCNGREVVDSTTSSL

As for `N[C@@]1(C(=O)O)CC[C@H](C(=O)O)C1` [1S, 3R-ACPD], the inhibition constant Ki is > 10 µM and 5.4 µM in experiment [1]; > 10 µM in experiment [2].

Consider `N[C@@H](Cn1oc(=O)[nH]c1=O)C(=O)O` [2-amino-3-(3,5-dioxo[1,2,4]oxadiazolidin-2-yl)propionic acid], for which the affinity in experiment [2] corresponds to a Ki of 0.42 µM.

Regarding `N[C@H](C(=O)O)[C@H]1C[C@H]1C(=O)O` [L-CCG-IV], the results for the Ki in experiment [3] and in experiment [2] were 3.47 µM and > 10 µM, respectively.

A word on the Ki: it is the dissociation constant of the complex between target and ligand, obtained from inhibition or displacement.
